Source: patent US11160798B2, “Neuroprotective CB2 receptor agonists” (THE CLEVELAND CLINIC FOUNDATION, priority 2012, dated 2021)

What was measured:
[1] = tested on: cognitive impairment induced by Aβ1-40; assay: Morris water maze test in rats microinjected with Aβ1-40 fibrils; type: in vivo, rat; conditions: Aβ1-40-injected rats
Description: Animals and treatment protocol. All animal procedures were approved by the Animal Care and Use Committee of Cleveland Clinic. Animals were housed the Institutional Biological Rodent Unit on a 12/12 h light/dark cycle with water and food pellets available ad libitum. Adult male Sprague-Dawley (Charles River, Wilmington, Mass.) rats weighing 200-250 g were used, and all experiments were performed during the light cycle.
(§1) Animals were divided into several groups ([…]). The Aβ1-40 group received bilateral intracerebral microinjection of Aβ1-40 fibrils once and saline intraperitoneally (i.p.) daily for 14 days. The Aβ1-40+MDA7 group received bilateral intracerebral microinjection of Aβ1-40 fibrils once and 15 mg/kg MDA7 i.p. daily for 14 days. Other cohorts received smaller doses of MDA7 (5 mg/kg or 1.5 mg/kg) i.p. daily for 14 days to determine the dose-response characteristics for MDA7. In other groups, AM630 (a CB2 antagonist) 5 mg/kg i.p. was administered daily for 14 days either alone (Aβ1-40+AM630 group) or 15 min prior to MDA7 (15 mg/kg i.p.) administration (Aβ1-40+MDA7+AM630 group) to rats injected with β1-40 fibrils. MDA7 group and control group received bilateral intracerebral microinjection of artificial cerebrospinal fluid (130 mM NaCl, 2.6 mM KCl. 4.3 mM MgCl2 and 1.8 mM CaCl2) once and 15 mg/kg MDA7 or saline i.p. daily for 14 days, respectively. Intraperitoneal administration of AM630, MDA7 or saline started on the same day after intracerebral microinjection of Aβ1-40. All drugs were prepared coded. Decoding was performed at the end of all experiments.
Microinjection of amyloid fibrils into the hippocampal CA1 area. Rats were anesthetized with sodium pentobarbital (45 mg/kg i.p.) and restrained in a stereotaxic apparatus. Aβ1-40 fibrils were formed as described previously. Chacon, et al., Mol Psychiatry 9(10), 953-61 (2004), Aβ1-40 fibrils (10 μg/3 μl) or 3 μl of artificial cerebrospinal fluid were injected stereotaxically and bilaterally into each hippocampus (coordinates; Bregma −3.5 mm anteroposterior, ±2.0 mm mediolateral, and −3.0 mm dorsoventral) using a 10 μl Hamilton syringe with a 27 G stainless steel needle at a rate of 0.5 μl/min. This experimental model has been used for studying AD. Ahmed, et al., Neuroscience 169(3), 1296-306 (2010).
Morris water maze test. A cohort of rats (n=10 per group) was tested 15 days after surgery as described by Chacon et al. (ibid). Testing was conducted in all groups at the same time of the day. The experimental apparatus consisted of a circular pool (120 cm in diameter, 45 cm high). An invisible platform (15 cm in diameter, 35 cm high) was placed 1.5 cm below the surface of the water. The water temperature was kept at 24-28° C. The pool was located in a test room, and many clues external to the maze were visible from the pool, which could be used by the rats for spatial orientation. The position of the cues was kept constant throughout the task. Each rat underwent four trials per day for five days. During each trial (memory acquisition), the rats were placed randomly at one of four fixed starting points and were allowed to swim for 120 s or until they escaped from the water by reaching the platform. The platform was located in the same position throughout the test in the middle of one quadrant. The start location was moved to a different quadrant in each trial so that no single start location was used in consecutive trials. In each training session, the latency to escape to the hidden platform was recorded. After the rats reached the platform, they were allowed to rest there for 20 seconds, and they then were removed from the pool. An inter-trial interval of at least 4 minutes was used to ensure that each rat's performance was not impaired by fatigue. After completing four trials, the rats were removed from the pool, dried and returned to their home cage. […]

[2] = tested on: Aβ1-40; assay: Clearance of Aβ1-40 injected in the hippocampal CA1 area (immunofluorescence); type: in vivo, rat
Description: as §1
Microinjection of amyloid fibrils into the hippocampal CA1 area. Rats were anesthetized with sodium pentobarbital (45 mg/kg i.p.) and restrained in a stereotaxic apparatus. Aβ1-40 fibrils were formed as described previously. […]
Immunostaining. […] Three to six sections from each rat were randomly selected and were analyzed using Leica DMLB fluorescence microscope (Leica Microsystems Wetzlar GmbH, Germany) by one investigator, who was blinded to the origin of tissue being examined. Images were quantified using MCID Core software version 7.0 (InterFocus Imaging Ltd, Cambridge, England).

[3] = target: CB2 receptor (Homo sapiens, UniProt P34972); conditions: cited from earlier work
Chain of CB2 receptor (P34972 whole entry): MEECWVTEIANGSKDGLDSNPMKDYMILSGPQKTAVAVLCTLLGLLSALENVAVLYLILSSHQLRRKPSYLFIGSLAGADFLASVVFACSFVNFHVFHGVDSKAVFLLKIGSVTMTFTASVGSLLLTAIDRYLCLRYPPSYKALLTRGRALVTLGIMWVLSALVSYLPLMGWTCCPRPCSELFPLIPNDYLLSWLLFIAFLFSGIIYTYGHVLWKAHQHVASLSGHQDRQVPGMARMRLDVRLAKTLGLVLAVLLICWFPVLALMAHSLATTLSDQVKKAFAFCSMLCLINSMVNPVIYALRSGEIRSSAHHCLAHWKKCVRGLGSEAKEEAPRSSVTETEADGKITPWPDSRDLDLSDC

COc1ccc(C(=O)c2c(C)n(CCN3CCOCC3)c3cc(I)ccc23)cc1 [AM630, reference compound]
effect on escape latency of AM630 given prior to MDA7 ([1]; AM630 5 mg/kg i.p. 15 min prior to MDA7 15 mg/kg i.p., daily for 14 days): reversed the effect of MDA7 | spatial memory or probe test, AM630 alone ([1]; AM630 5 mg/kg i.p. daily for 14 days alone, vs Aβ1-40 group): did not show any improvement | effect of prior AM630 on MDA7-induced removal of Aβ1-40 ([2]; AM630 5 mg/kg i.p. for 14 days prior to MDA7 15 mg/kg): abrogated | clearance of injected Aβ1-40, AM630 alone ([2]; Aβ1-40-injected rats, AM630 5 mg/kg i.p. alone): no effect

CC1(Cc2ccccc2)COc2cc(C(=O)N3CCCCC3)ccc21 (stereo in doubt) [S enantiomer, (S)-(3-benzyl-3-methyl-2,3-dihydro-benzofuran-6-yl)-piperidin-1-yl-methanone]
activity compared with the other enantiomer [3]: higher activity
